# Test results taken from publication PMC10191551, “Safety, Tolerability, and Pharmacokinetics of Oral Ferric Maltol in Children With Iron Deficiency: Phase 1 Study” (JPGN Reports, 2021).
# Assay: Phase 1 study: safety and tolerability (adverse events, vital signs, ECG, laboratory tests, compliance) of oral ferric maltol
# Details: for Patients With an AE: Any AE: safety population
# Text: This phase 1, randomized, open-label, parallel-group pharmacokinetic study involved children seen as outpatients at 6 centers in the UK: Alder Hey Children’s NHS Foundation Trust; King’s College Hospital NHS Foundation Trust; University Hospitals of Leicester NHS Trust; Nottingham University Hospitals NHS Trust; Manchester University NHS Foundation Trust; and University College London Hospitals NHS Foundation Trust. […] Children aged 16 years or older and parents or guardians of children younger than 16 years provided written informed consent to participate before study initiation.
# Children aged 10–17 years with confirmed iron deficiency at screening (defined as either ferritin <30 µg/L or ferritin <50 µg/L with transferrin saturation [TSAT] <20%) were eligible for inclusion in the study. Patients with or without anemia could be enrolled, provided hemoglobin was ≥8.5 g/dL at screening. Girls of childbearing potential had to agree to use adequate contraception during and until 4 weeks after the end of the study.
# The study comprised a screening period followed by a 10-day randomized treatment period and a post-treatment safety follow-up. Children were randomized 1:1:1 (stratified by age [10–14 vs 15–17 years] and sex) to ferric maltol 7.8 mg, 16.6 mg, or 30 mg twice daily (b.d.) for 9 days and once in the morning of day 10. The first and last doses of ferric maltol were taken in the presence of the investigator. Children took each dose with a glass of water 1 hour before or 2 hours after a meal. Doses were based on daily elemental iron requirements for the broad range of body weights of participants likely to be enrolled, with the aim of finding a minimum effective dose in this age group. The 30 mg b.d. adult dosage was chosen as the highest exposure; dosages of 16.6 mg b.d. and 7.8 mg b.d. were chosen as approximately one-half and one-quarter of the adult dose, respectively, with the exact dose depending on the full fill of available capsule shell sizes.
# The primary objectives were to assess iron uptake and ferric maltol pharmacokinetics. Serum iron and TSAT provided measures of iron uptake. In adults, dissociated maltol undergoes rapid glucuronidation and is cleared in urine as maltol glucuronide (36); therefore, in this study, plasma maltol glucuronide was measured to confirm the rate of clearance in children. The secondary objective was to assess the safety and tolerability of ferric maltol in terms of vital signs, AEs, concomitant medications, 12-lead electrocardiograms, and clinical laboratory blood tests.
# Safety analyses were conducted in all patients who received at least 1 dose of the study medication and had at least 1 subsequent visit (the safety population). […] Clinically significant changes from baseline in vital signs, physical examination, and routine clinical laboratory abnormalities were also recorded.
structure (smiles),measurement,setting,value
Cc1occc(=O)c1[O-].Cc1occc(=O)c1[O-].Cc1occc(=O)c1[O-].[Fe+3] [Ferric maltol],Patients with a TEAE: Papule,30 mg b.d. (n = 12),1 (8.3) n (%)
same,Patients with a TEAE: Pyrexia,30 mg b.d. (n = 12),1 (8.3) n (%)
same,Patients with a TEAE: Skin abrasion,30 mg b.d. (n = 12),0 (0.0) n (%)
same,Patients with a TEAE: Sneezing,30 mg b.d. (n = 12),0 (0.0) n (%)
same,Patients with a TEAE: Tonsillitis,30 mg b.d. (n = 12),0 (0.0) n (%)
same,Patients with a TEAE: Vomiting,30 mg b.d. (n = 12),0 (0.0) n (%)
same,TEAEs by system organ class: Cardiac disorders,30 mg b.d. (n = 12),0 (0.0) n (%)
same,TEAEs by system organ class: Gastrointestinal disorders,30 mg b.d. (n = 12),6 (50.0) n (%)
same,TEAEs by system organ class: General disorders and administration-site conditions,30 mg b.d. (n = 12),2 (16.7) n (%)
same,"TEAEs by system organ class: Injury, poisoning, and procedural complications",30 mg b.d. (n = 12),1 (8.3) n (%)
same,"TEAEs by system organ class: Neoplasms benign, malignant, and unspecified",30 mg b.d. (n = 12),0 (0.0) n (%)
same,TEAEs by system organ class: Nervous system disorders,30 mg b.d. (n = 12),5 (41.7) n (%)
same,"TEAEs by system organ class: Respiratory, thoracic, and mediastinal disorders",30 mg b.d. (n = 12),1 (8.3) n (%)
same,TEAEs by system organ class: Skin and subcutaneous-tissue disorders,30 mg b.d. (n = 12),1 (8.3) n (%)
same,Patients With an AE: Any AE,30 mg b.d. (n = 12),7 (58.3) n (%)
same,Patients With an AE: Any SAE,"Total, all doses (N = 37)",0 (0.0) n (%)
same,Patients With an AE: Any TEAE,"Total, all doses (N = 37)",20 (54.1) n (%)
same,Patients With an AE: TEAE leading to study discontinuation,"Total, all doses (N = 37)",1 (2.7) n (%)
same,Patients With an AE: TEAE related to study drug,"Total, all doses (N = 37)",9 (24.3) n (%)
same,Patients with a TEAE: Abdominal distension,"Total, all doses (N = 37)",1 (2.7) n (%)
same,Patients with a TEAE: Abdominal pain,"Total, all doses (N = 37)",1 (2.7) n (%)
same,Patients with a TEAE: Anal incontinence,"Total, all doses (N = 37)",1 (2.7) n (%)
same,Patients with a TEAE: Cellulitis,"Total, all doses (N = 37)",1 (2.7) n (%)
same,Patients with a TEAE: Constipation,"Total, all doses (N = 37)",1 (2.7) n (%)
same,Patients with a TEAE: Cough,"Total, all doses (N = 37)",2 (5.4) n (%)
same,Patients with a TEAE: Diarrhea,"Total, all doses (N = 37)",3 (8.1) n (%)
same,Patients with a TEAE: Dizziness,"Total, all doses (N = 37)",3 (8.1) n (%)
same,Patients with a TEAE: Dyspepsia,"Total, all doses (N = 37)",1 (2.7) n (%)
same,Patients with a TEAE: Dyspnea,"Total, all doses (N = 37)",1 (2.7) n (%)
same,Patients with a TEAE: Fatigue,"Total, all doses (N = 37)",4 (10.8) n (%)
same,Patients with a TEAE: Feces discolored,"Total, all doses (N = 37)",5 (13.5) n (%)
same,Patients with a TEAE: Granuloma skin,"Total, all doses (N = 37)",1 (2.7) n (%)
same,Patients with a TEAE: Headache,"Total, all doses (N = 37)",7 (18.9) n (%)
same,Patients with a TEAE: Injection-site pain,"Total, all doses (N = 37)",1 (2.7) n (%)
same,Patients with a TEAE: Lethargy,"Total, all doses (N = 37)",1 (2.7) n (%)
same,Patients with a TEAE: Ligament sprain,"Total, all doses (N = 37)",1 (2.7) n (%)
same,Patients with a TEAE: Lip dry,"Total, all doses (N = 37)",1 (2.7) n (%)
same,Patients with a TEAE: Nasal congestion,"Total, all doses (N = 37)",1 (2.7) n (%)
same,Patients with a TEAE: Nasopharyngitis,"Total, all doses (N = 37)",1 (2.7) n (%)
same,Patients with a TEAE: Nausea,"Total, all doses (N = 37)",2 (5.4) n (%)
same,Patients with a TEAE: Nevus hemorrhage,"Total, all doses (N = 37)",1 (2.7) n (%)
same,Patients with a TEAE: Palpitations,"Total, all doses (N = 37)",1 (2.7) n (%)
same,Patients with a TEAE: Papule,"Total, all doses (N = 37)",1 (2.7) n (%)
same,Patients with a TEAE: Pyrexia,"Total, all doses (N = 37)",1 (2.7) n (%)
same,Patients with a TEAE: Skin abrasion,"Total, all doses (N = 37)",1 (2.7) n (%)
same,Patients with a TEAE: Sneezing,"Total, all doses (N = 37)",1 (2.7) n (%)
same,Patients with a TEAE: Tonsillitis,"Total, all doses (N = 37)",1 (2.7) n (%)
same,Patients with a TEAE: Vomiting,"Total, all doses (N = 37)",2 (5.4) n (%)
same,TEAEs by system organ class: Cardiac disorders,"Total, all doses (N = 37)",1 (2.7) n (%)
same,TEAEs by system organ class: Gastrointestinal disorders,"Total, all doses (N = 37)",12 (32.4) n (%)
same,TEAEs by system organ class: General disorders and administration-site conditions,"Total, all doses (N = 37)",5 (13.5) n (%)
same,"TEAEs by system organ class: Injury, poisoning, and procedural complications","Total, all doses (N = 37)",2 (5.4) n (%)
same,"TEAEs by system organ class: Neoplasms benign, malignant, and unspecified","Total, all doses (N = 37)",1 (2.7) n (%)
same,TEAEs by system organ class: Nervous system disorders,"Total, all doses (N = 37)",9 (24.3) n (%)
same,"TEAEs by system organ class: Respiratory, thoracic, and mediastinal disorders","Total, all doses (N = 37)",4 (10.8) n (%)
same,TEAEs by system organ class: Skin and subcutaneous-tissue disorders,"Total, all doses (N = 37)",2 (5.4) n (%)
same,Patients With an AE: Any AE,"Total, all doses (N = 37)",21 (56.8) n (%)
same,Changes from baseline in vital signs or 12-lead electrocardiogram results,all doses,No clinically meaningful changes
same,Patients with laboratory abnormalities considered as TEAEs or SAEs,all doses,No patients
same,Children who experienced a TEAE,"all doses, N = 37",54%
same,Children with a TEAE related to the study drug,"all doses, N = 37",24%
same,Deaths or SAEs,"all doses, N = 37",no deaths or SAEs
same,Drug-related TEAE anal incontinence,"all doses, N = 37",1 patient
same,Drug-related TEAE constipation,"all doses, N = 37",1 patient
same,Drug-related TEAE diarrhea,"all doses, N = 37",2 n
same,Drug-related TEAE dizziness,"all doses, N = 37",2 n
same,Drug-related TEAE dyspepsia,"all doses, N = 37",1 patient
same,Drug-related TEAE dyspnea,"all doses, N = 37",1 patient
same,Drug-related TEAE fatigue,"all doses, N = 37",2 n
same,Drug-related TEAE feces discoloration,"all doses, N = 37",5 n
same,Drug-related TEAE headache,"all doses, N = 37",3 n
same,Drug-related TEAE lethargy,"all doses, N = 37",1 patient
same,Drug-related TEAE nausea,"all doses, N = 37",1 patient
same,Drug-related TEAE palpitations,"all doses, N = 37",1 patient
same,Drug-related TEAE papule,"all doses, N = 37",1 patient
same,"Gastrointestinal TEAEs, overall","all doses, N = 37",32%
same,"Nervous system disorders TEAEs, overall","all doses, N = 37",24%
same,"TEAE abdominal distension, number of children","all doses, N = 37",1 n
same,"TEAE abdominal pain, number of children","all doses, N = 37",1 n
same,"TEAE anal incontinence, number of children","all doses, N = 37",1 n
same,"TEAE constipation, number of children","all doses, N = 37",1 n
same,"TEAE diarrhea, number of children","all doses, N = 37",3 n
same,"TEAE dizziness, number of children","all doses, N = 37",3 n
same,"TEAE dyspepsia, number of children","all doses, N = 37",1 n
same,"TEAE fecal discoloration, number of children","all doses, N = 37",5 n
same,"TEAE headache, number of children","all doses, N = 37",7 n
same,"TEAE lethargy, number of children","all doses, N = 37",1 n
same,"TEAE nausea, number of children","all doses, N = 37",2 n
same,"TEAE vomiting, number of children","all doses, N = 37",2 n
same,Children who experienced a TEAE,"all doses, N = 37, listed as ferric maltol",54.1%
same,Severity of TEAEs,"all doses, all recovered or resolved",mild or moderate
